# Source: patent US20250136555A1 (HARBIN MEDISAN PHARMACEUTICAL CO., LTD., priority 2022, published 2025)
# Read-outs that look alike come from different tables or passages of the source.
# Tests used:
# [1] = target: T1, PPARδ (Homo sapiens, UniProt Q03181); assay: GAL4 hybrid reporter gene method, PPARδ agonistic activity; assay type: cell-based
# T1 construct: expressed in transfected cells; host or cells: COS-7
# T1 sequence (Q03181 211-439 limits assumed): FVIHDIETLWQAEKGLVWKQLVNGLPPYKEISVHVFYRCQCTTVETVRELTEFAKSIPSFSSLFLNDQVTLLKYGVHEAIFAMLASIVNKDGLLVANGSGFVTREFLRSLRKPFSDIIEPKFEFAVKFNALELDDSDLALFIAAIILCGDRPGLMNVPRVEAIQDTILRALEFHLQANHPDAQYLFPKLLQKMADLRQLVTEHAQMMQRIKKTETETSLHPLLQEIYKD
# Description: (§1) Cos-7 cells (African green monkey kidney fibroblasts, commonly used tool cells) were cultured in a 10-cm cell culture dish with a DMEM complete medium containing 10% fetal bovine serum. When growing at a density of about 70%, the cells were ready for transfection. […] The working solution described above was then combined with 8 mL of the DMEM complete medium, and the mixture was added to the cell culture dish for cell transfection. After 4 h of transfection, the cells were digested, resuspended, and seeded into a 96-well plate at 25,000 cells/well. […] 10 μL of a reporter gene detection solution (purchased from Shanghai Beyotime Biological Tech. Co., Ltd.) was added. After the resulting solution was mixed and reacted, biological fluorescence was detected by using a multifunctional microplate reader, and corresponding half maximal effective concentration (EC50) values were calculated according to the detection values. […] Transfection working solutions for different nuclear receptors were prepared and added into COS-7 cells. The preparation method for the transfection working solution was as follows: the constructed pBIND-Gal4-PPARα (LBD) (or pBIND-Gal4-PPARδ (LBD) plasmid or pBIND-Gal4-PPARγ (LBD) plasmid or pBIND-Gal4-RARα (LBD) plasmid or pBIND-Gal4-RARγ (LBD) plasmid or pBIND-Gal4-RARβ (LBD) plasmid or pBIND-Gal4-RORα (LBD) plasmid or pBIND-Gal4-RORγ (LBD) plasmid or pBIND-Gal4-RORβ (LBD) plasmid or pBIND-Gal4-FXR (LBD) plasmid or pBIND-Gal4-RXRα.
# [2] = target: T2, PPARγ (Homo sapiens, UniProt P37231); assay: GAL4 hybrid reporter gene method, PPARγ agonistic activity; assay type: cell-based
# T2 construct: expressed in transfected cells; host or cells: COS-7
# T2 sequence (P37231 238-503 limits assumed): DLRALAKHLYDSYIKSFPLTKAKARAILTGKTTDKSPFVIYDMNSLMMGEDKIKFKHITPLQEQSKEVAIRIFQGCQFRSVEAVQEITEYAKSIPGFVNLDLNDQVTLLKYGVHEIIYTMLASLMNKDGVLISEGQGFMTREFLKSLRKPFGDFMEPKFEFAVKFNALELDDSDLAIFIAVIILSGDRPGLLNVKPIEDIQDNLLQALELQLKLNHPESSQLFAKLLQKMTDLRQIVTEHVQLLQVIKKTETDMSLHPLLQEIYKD
# Description: as §1
# [3] = target: T3, PPARα (Homo sapiens, UniProt Q07869); assay: GAL4 hybrid reporter gene method, PPARα agonistic activity; assay type: cell-based; settings: Cos-7 cells, Gal4-PPARα (LBD); GW7647 10 nM = 100%; 16 h
# T3 construct: expressed in transfected cells; host or cells: COS-7
# T3 sequence (Q07869 239-466 limits assumed): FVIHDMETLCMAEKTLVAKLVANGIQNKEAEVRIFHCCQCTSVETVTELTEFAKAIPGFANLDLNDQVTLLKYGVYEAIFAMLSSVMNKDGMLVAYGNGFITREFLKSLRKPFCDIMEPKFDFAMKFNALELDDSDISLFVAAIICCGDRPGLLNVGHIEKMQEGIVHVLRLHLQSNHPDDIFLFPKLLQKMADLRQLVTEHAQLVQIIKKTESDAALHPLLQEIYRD
# Description: as §1
# [4] = NCT02704403; cited from earlier work
# [5] = Metabolic stability in human liver microsomes; assay type: in vitro ADME; settings: human liver microsomes 0.75 mg/mL, NADPH
# Description: A solution of the compound in acetonitrile at a concentration of 500 μM was prepared and diluted in 0.1 M potassium phosphate solution to obtain a 1.5 μM drug working solution. The drug working solution was co-incubated with a human liver microsome working solution at a final concentration of 0.75 mg/mL and a NADPH solution (at a final concentration of 550 μM), and the incubation was terminated by adding an acetonitrile solution at 0 min, 15 min, 30 min, 45 min, and 60 min, respectively. The remaining amount of the compound remained in the system at each time point was detected by using LC/MS, the absolute value k of the slope was measured by plotting the natural logarithm of the percentage of the remaining amount of the compound over time, and the calculation was performed according to the formula: T1/2 (half-life)=ln2/k=0.693/k.
# [6] = Cos-7 cells, Gal4-PPARδ (LBD), GW501516 10 nM = 100%, 16 h
# [7] = Cos-7 cells, Gal4-PPARγ (LBD), Rosiglitazone 1 μM = 100%, 16 h
EC50 [1] [nM],EC50 [2] [nM],EC50 [3] [nM],SMILES,also measured
19,> 5000,9.9,"CC(C)(Oc1c(F)cc(CN2C(=O)CN(c3ccc(C(F)(F)F)cc3)C2=O)cc1Cl)C(=O)O [Compound 47, 2-(2-Chloro-4-((2,5-dioxo-3-(4-(trifluoromethyl)phenyl)imidazolin-1-yl)methyl)-6-fluorophenoxy)-2-methylpropionic Acid]",–
40.1,> 5000,89.9,"CC(C)(Oc1ccc(CN2C(=O)CN(c3ccc(C(F)(F)F)cc3)C2=O)cc1Cl)C(=O)O [Compound 51, 2-(4-((2,5-Dioxo-3-(4-(trifluoromethyl)phenyl)imidazolin-1-yl)methyl)-2-chlorophenoxy)-2-methylpropionic Acid]",–
–,> 5000,325,"Cc1cc(CN2C(=O)CN(c3ccc(C(F)(F)F)cc3)C2=O)cc(C)c1OCC(=O)O [Compound 53, 2-(4-((2,5-Dioxo-3-(4-(trifluoromethyl)phenyl)imidazolin-1-yl)methyl)-2,6-dimethylphenoxy)acetic Acid]","EC50 [1, 6]: 175 nM"
24,2960,82.1,"CC(C)(Oc1ccc(CN2C(=O)CN(c3ccc(C(F)(F)F)cc3)C2=O)cc1OC(F)(F)F)C(=O)O [Compound 55, 2-(4-((2,5-Dioxo-3-(4-(trifluoromethyl)phenyl)imidazolin-1-yl)methyl)-2-(trifluoromethoxy)phenoxy)-2-methylpropionic Acid]",–
–,–,46.7,"Cc1cc(CN2C(=O)CN(c3ccc(C(F)(F)F)cc3)C2=O)ccc1OC(C)(C)C(=O)O [Compound 57, 2-(4-((2,5-Dioxo-3-(4-(trifluoromethyl)phenyl)imidazolin-1-yl)methyl)-2-(methyl)phenoxy)-2-methylpropionic Acid]","EC50 [1, 6]: 19.2 nM; EC50 [2, 7]: 2720 nM"
–,> 5000,277,"CC(C)(Oc1ccc(CN2C(=O)CN(c3ccc(C(F)(F)F)cc3)C2=O)cc1)C(=O)O [Compound 59, 2-(4-((2,5-Dioxo-3-(4-(trifluoromethyl)phenyl)imidazolin-1-yl)methyl)phenoxy)-2-methylpropionic Acid]","EC50 [1, 6]: 359 nM"
3.4,1920,14.1,"CCC(Oc1c(C)cc(CN2C(=O)CN(c3ccc(C(F)(F)F)cc3)C2=O)cc1C)C(=O)O (stereo not shown) [Compound 67, 2-(4-((2,5-Dioxo-3-(4-(trifluoromethyl)phenyl)imidazolin-1-yl)methyl)-2,6-dimethylphenoxy)butyric Acid]",–
> 5000,> 5000,1090,"Cc1cc(CN2C(=O)CN(c3ccc(S(C)(=O)=O)cc3)C2=O)cc(C)c1OC(C)(C)C(=O)O [Compound 71, 2-(2,6-Dimethyl-4-((3-(4-(methylsulfonyl)phenyl)-2,5-dioxoimidazolin-1-yl)methyl)phenoxy)-2-methylpropionic Acid]",–
31,2120,2.4,"COc1cc(CN2C(=O)CN(c3ccc(C(F)(F)F)cc3)C2=O)cc(Cl)c1OC(C)(C)C(=O)O [Compound 73, 2-(2-Chloro-4-((2,5-dioxo-3-(4-(trifluoromethyl)phenyl)imidazolin-1-yl)methyl)-6-methoxyphenoxy)-2-methylpropionic Acid]",–
25.3,3190,74.1,"CC(C)(Oc1ccc(CN2C(=O)CN(c3ccc(C(F)(F)F)cc3)C2=O)cc1Br)C(=O)O [Compound 77, 2-(2-Bromo-4-((2,5-dioxo-3-(4-trifluoromethyl)phenyl)imidazolidin-1-yl)methylphenoxy)-2-methylpropionic Acid]",–
–,> 5000,165,"Cc1cc(CN2CC(=O)N(c3ccc(C(F)(F)F)cc3)C2=O)cc(C)c1OC(C)(C)C(=O)O [Compound 81, 2-(4-((2,4-Dioxo-3-(4-(trifluoromethyl)phenyl)imidazolidin-1-yl)methyl)-2,6-dimethylphenoxy)-2-methylpropionic Acid]","EC50 [1, 6]: 82.1 nM"
–,–,79.3,Cc1cc(CN2C(=O)N(c3ccc(C(F)(F)F)cc3)C(=O)C2(C)C)cc(C)c1OC(C)(C)C(=O)O [Compound 83],"EC50 [1, 6]: 6.5 nM; EC50 [2, 7]: 1680 nM"
–,2720,17.9,"Cc1cc(CCN2C(=O)CN(c3ccc(C(F)(F)F)cc3)C2=O)cc(C)c1OC(C)(C)C(=O)O [Compound 85, 2-(4-(2-(2,5-Dioxo-3-(4-(trifluoromethyl)phenyl)imidazolidin-1-yl)ethyl)-2,6-dimethylphenoxy)-2-methylpropionic Acid]","EC50 [1, 6]: 4.4 nM"
352,3400,353,"Cc1cc(CCN2CC(=O)N(c3ccc(C(F)(F)F)cc3)C2=O)cc(C)c1OC(C)(C)C(=O)O [Compound 87, 2-(4-(2-(2,4-Dioxo-3-(4-(trifluoromethyl)phenyl)imidazolin-1-yl)ethyl)-2,6-dimethylphenoxy)-2-methylpropionic Acid]",–
–,–,67,"Cc1cc(CCCN2C(=O)CN(c3ccc(C(F)(F)F)cc3)C2=O)cc(C)c1OC(C)(C)C(=O)O [Compound 89, 2-(4-(3-(2,5-Dioxo-3-(4-(trifluoromethyl)phenyl)imidazolidin-1-yl)propyl)-2,6-dimethylphenoxy)-2-methylpropionic Acid]","EC50 [1, 6]: 20.3 nM; EC50 [2, 7]: 628 nM"
632,2690,38,"Cc1cc(CCCN2CC(=O)N(c3ccc(C(F)(F)F)cc3)C2=O)cc(C)c1OC(C)(C)C(=O)O [Compound 91, 2-(4-(3-(2,4-Dioxo-3-(4-(trifluoromethyl)phenyl)imidazolidin-1-yl)propyl)-2,6-dimethylphenoxy)-2-methylpropionic Acid]",–
66.9,1330,10.9,CCOc1ccc(N2CC(=O)N(Cc3cc(C)c(OC(C)(C)C(=O)O)c(C)c3)C2=O)cc1 [Compound 95],–
1400,2890,209,COc1cc(CN2C(=O)CN(c3ccc(C(F)(F)F)cc3)C2=O)ccc1OC(C)(C)C(=O)O [Compound 97],–
> 5000,> 5000,402,Cc1cc(CN2C(=O)CN(c3ccc(C=O)cc3)C2=O)cc(C)c1OC(C)(C)C(=O)O [Compound 99],–
10.2,313,1,Cc1cc(CN2C(=O)CN(c3ccc(C4CC4)cc3)C2=O)cc(C)c1OC(C)(C)C(=O)O [Compound 101],"PPARδ EC50 (nM) [1, 6]: low nanomolar levels; PPARα EC50 (nM) [3]: low nanomolar levels"
97.6,474,102,Cc1cc(CN2C(=O)CN(c3cccc(F)c3)C2=O)cc(C)c1OC(C)(C)C(=O)O [Compound 103],–
40.5,165,21.9,Cc1cc(CN2C(=O)CN(c3ccc(F)c(Cl)c3)C2=O)cc(C)c1OC(C)(C)C(=O)O [Compound 105],–
47.5,652,105,Cc1cc(CN2C(=O)CN(c3cccc(Cl)c3)C2=O)cc(C)c1OC(C)(C)C(=O)O [Compound 107],–
15.1,363,31.7,Cc1cc(CN2C(=O)CN(c3cccc(OC(F)(F)F)c3)C2=O)cc(C)c1OC(C)(C)C(=O)O [Compound 109],–
–,–,820,"CSc1ccc(C(=O)/C=C/c2cc(C)c(OC(C)(C)C(=O)O)c(C)c2)cc1 [GFT505, Elafibranor, reference compound]","interim analysis result of phase III clinical trial against NASH [4]: substantially ineffective; CLint scaled [5]: 116 mL/min/kg; half-life [5]: 15 min; EC50 [2, 7]: 1840 nM"
